Numbers after ± are expanded uncertainties.
Tests used:
[1] = 101.33 kPa, Liquid, Vibrating tube method
[2] = activity coefficient (dimensionless); of the first substance listed, at infinite dilution; xn = mol fraction of the nth substance listed; conditions: 101.33 kPa, Liquid, Chromatography, x1 = 0

mass density ([1]; 298.15 K) [kg/m3]	mass density ([1]; 308.15 K) [kg/m3]	mass density ([1]; 318.15 K) [kg/m3]	mass density ([1]; 328.15 K) [kg/m3]	mass density ([1]; 338.15 K) [kg/m3]	mass density ([1]; 348.15 K) [kg/m3]	mass density ([1]; 358.15 K) [kg/m3]	mass density ([1]; 368.15 K) [kg/m3]	activity coefficient ([2]; 328.15 K)	activity coefficient ([2]; 338.15 K)	activity coefficient ([2]; 348.15 K)	activity coefficient ([2]; 358.15 K)	activity coefficient ([2]; 368.15 K)	SMILES
900.77 ± 3.7	894.91 ± 3.7	889.05 ± 3.7	883.23 ± 3.7	877.43 ± 3.7	871.66 ± 3.7	865.92 ± 3.6	860.2 ± 3.6						CCCCCCCCCCCCCC[P+](CCCCCC)(CCCCCC)CCCCCC.N#CC(=C=[N-])C#N [trihexyltetradecylphosphonium tricyanomethanide]
								0.99 ± 0.062	1 ± 0.06	1.01 ± 0.06	1.03 ± 0.06	1.04 ± 0.07	C1CCCC1 [cyclopentane] + CCCCCCCCCCCCCC[P+](CCCCCC)(CCCCCC)CCCCCC.N#CC(=C=[N-])C#N
								1.3 ± 0.08	1.35 ± 0.09	1.39 ± 0.09	1.43 ± 0.09	1.47 ± 0.1	CCCOCCC [dipropyl ether] + CCCCCCCCCCCCCC[P+](CCCCCC)(CCCCCC)CCCCCC.N#CC(=C=[N-])C#N
								1.77 ± 0.12	1.81 ± 0.12	1.83 ± 0.12	1.86 ± 0.13	1.88 ± 0.13	CCCCCC [hexane] + CCCCCCCCCCCCCC[P+](CCCCCC)(CCCCCC)CCCCCC.N#CC(=C=[N-])C#N
								0.616 ± 0.043	0.641 ± 0.044	0.663 ± 0.045	0.688 ± 0.046	0.711 ± 0.047	CCC(=O)OC [methyl propanoate] + CCCCCCCCCCCCCC[P+](CCCCCC)(CCCCCC)CCCCCC.N#CC(=C=[N-])C#N
								1.69 ± 0.11	1.72 ± 0.12	1.75 ± 0.12	1.78 ± 0.12	1.8 ± 0.1	CCC(C)CC [3-methylpentane] + CCCCCCCCCCCCCC[P+](CCCCCC)(CCCCCC)CCCCCC.N#CC(=C=[N-])C#N
								1.81 ± 0.12	1.85 ± 0.12	1.88 ± 0.13	1.91 ± 0.13	1.94 ± 0.13	C=CCCCCCC [oct-1-ene] + CCCCCCCCCCCCCC[P+](CCCCCC)(CCCCCC)CCCCCC.N#CC(=C=[N-])C#N
								1.5 ± 0.1	1.54 ± 0.1	1.58 ± 0.1	1.62 ± 0.11	1.66 ± 0.11	CC(C)OC(C)C [diisopropyl ether] + CCCCCCCCCCCCCC[P+](CCCCCC)(CCCCCC)CCCCCC.N#CC(=C=[N-])C#N
									0.64 ± 0.044	0.678 ± 0.046	0.716 ± 0.048	0.751 ± 0.049	C=C(C)c1ccccc1 [(1-methylethenyl)benzene] + CCCCCCCCCCCCCC[P+](CCCCCC)(CCCCCC)CCCCCC.N#CC(=C=[N-])C#N
								2.22 ± 0.15	2.25 ± 0.15	2.28 ± 0.16	2.31 ± 0.16	2.33 ± 0.16	CC(C)CC(C)(C)C [2,2,4-trimethylpentane] + CCCCCCCCCCCCCC[P+](CCCCCC)(CCCCCC)CCCCCC.N#CC(=C=[N-])C#N
									0.668 ± 0.045	0.669 ± 0.045	0.671 ± 0.045	0.672 ± 0.046	CC#N [acetonitrile] + CCCCCCCCCCCCCC[P+](CCCCCC)(CCCCCC)CCCCCC.N#CC(=C=[N-])C#N
								3.09 ± 0.21	3.1 ± 0.21	3.1 ± 0.21	3.1 ± 0.21	3.1 ± 0.21	CCCCCCCCCC [decane] + CCCCCCCCCCCCCC[P+](CCCCCC)(CCCCCC)CCCCCC.N#CC(=C=[N-])C#N
								1.4 ± 0.09	1.45 ± 0.1	1.48 ± 0.1	1.53 ± 0.1	1.56 ± 0.1	CCOC(C)(C)C [2-ethoxy-2-methylpropane] + CCCCCCCCCCCCCC[P+](CCCCCC)(CCCCCC)CCCCCC.N#CC(=C=[N-])C#N
								0.426 ± 0.035	0.437 ± 0.035	0.447 ± 0.036	0.457 ± 0.036	0.465 ± 0.036	CCCO [propan-1-ol] + CCCCCCCCCCCCCC[P+](CCCCCC)(CCCCCC)CCCCCC.N#CC(=C=[N-])C#N
								1.25 ± 0.08	1.27 ± 0.08	1.3 ± 0.08	1.32 ± 0.09	1.34 ± 0.09	C=CCCC [1-pentene] + CCCCCCCCCCCCCC[P+](CCCCCC)(CCCCCC)CCCCCC.N#CC(=C=[N-])C#N
								1.85 ± 0.12	1.87 ± 0.13	1.89 ± 0.13	1.91 ± 0.13	1.93 ± 0.13	CCC(C)(C)C [2,2-dimethylbutane] + CCCCCCCCCCCCCC[P+](CCCCCC)(CCCCCC)CCCCCC.N#CC(=C=[N-])C#N
								1.21 ± 0.08	1.22 ± 0.08	1.23 ± 0.08	1.25 ± 0.08	1.26 ± 0.08	C1CCCCCC1 [cycloheptane] + CCCCCCCCCCCCCC[P+](CCCCCC)(CCCCCC)CCCCCC.N#CC(=C=[N-])C#N
								1.32 ± 0.09	1.33 ± 0.09	1.35 ± 0.09	1.36 ± 0.09	1.38 ± 0.09	CC1CCCCC1 [methylcyclohexane] + CCCCCCCCCCCCCC[P+](CCCCCC)(CCCCCC)CCCCCC.N#CC(=C=[N-])C#N
								1.01 ± 0.06	1.06 ± 0.07	1.1 ± 0.07	1.14 ± 0.07	1.18 ± 0.08	CCC(C)(C)OC [2-methoxy-2-methylbutane] + CCCCCCCCCCCCCC[P+](CCCCCC)(CCCCCC)CCCCCC.N#CC(=C=[N-])C#N
								0.46 ± 0.036	0.477 ± 0.037	0.494 ± 0.038	0.513 ± 0.038	0.533 ± 0.039	CCCC=O [butanal] + CCCCCCCCCCCCCC[P+](CCCCCC)(CCCCCC)CCCCCC.N#CC(=C=[N-])C#N

SMILES	mass density ([1]; 298.15 K) [kg/m3]	mass density ([1]; 308.15 K) [kg/m3]	mass density ([1]; 318.15 K) [kg/m3]	mass density ([1]; 328.15 K) [kg/m3]	mass density ([1]; 338.15 K) [kg/m3]	mass density ([1]; 348.15 K) [kg/m3]	mass density ([1]; 358.15 K) [kg/m3]	mass density ([1]; 368.15 K) [kg/m3]	activity coefficient ([2]; 328.15 K)	activity coefficient ([2]; 338.15 K)	activity coefficient ([2]; 348.15 K)	activity coefficient ([2]; 358.15 K)	activity coefficient ([2]; 368.15 K)
CC(C)=O [acetone] + CCCCCCCCCCCCCC[P+](CCCCCC)(CCCCCC)CCCCCC.N#CC(=C=[N-])C#N									0.454 ± 0.036	0.466 ± 0.036	0.477 ± 0.037	0.491 ± 0.037	0.503 ± 0.038
Cc1cccc(C)c1 [1,3-dimethylbenzene] + CCCCCCCCCCCCCC[P+](CCCCCC)(CCCCCC)CCCCCC.N#CC(=C=[N-])C#N									0.713 ± 0.048	0.74 ± 0.049	0.77 ± 0.05	0.8 ± 0.052	0.826 ± 0.053

Source: the NIST ThermoML archive (doi:10.1016/j.jct.2018.01.003)
